Where “and” joins values, the source holds several entries; their conditions need not be identical. Equal values may be shown once.
How the values were obtained:
Assay in all cases: radiometric filter-binding kinase assay, Kinase HotSpot
Conditions in all cases: compound 0.5 µM; ATP 10 µM
[1] = biological target: AKT2 (human) (UniProt P31751)
[2] = biological target: AURKB (human) (UniProt Q96GD4)
[3] = biological target: AXL (human) (UniProt P30530)
[4] = biological target: CAMKK1 (human) (UniProt Q8N5S9)
[5] = biological target: CDK3 CCNE1 (human) (UniProt Q00526+P24864)
[6] = biological target: CDK6 CCND1 (human) (UniProt Q00534+P24385)
[7] = biological target: CLK2 (human) (UniProt P49760)
[8] = biological target: CSNK1A1 (human) (UniProt P48729)
[9] = biological target: CSNK2A2 (human) (UniProt P19784)
[10] = biological target: EPHA4 (human) (UniProt P54764)
[11] = biological target: ERBB4 (human) (UniProt Q15303)
[12] = biological target: HIPK4 (human) (UniProt Q8NE63)
[13] = biological target: IKBKE (human) (UniProt Q14164)
[14] = biological target: KIT (human) (UniProt P10721)
[15] = biological target: LRRK2 (human) (UniProt Q5S007)
[16] = biological target: MAP3K10 (human) (UniProt Q02779)
[17] = biological target: MAP3K9 (human) (UniProt P80192)
[18] = biological target: MAPK11 (human) (UniProt Q15759)
Chain of MAPK11 (human) (Q15759 whole entry, looked up): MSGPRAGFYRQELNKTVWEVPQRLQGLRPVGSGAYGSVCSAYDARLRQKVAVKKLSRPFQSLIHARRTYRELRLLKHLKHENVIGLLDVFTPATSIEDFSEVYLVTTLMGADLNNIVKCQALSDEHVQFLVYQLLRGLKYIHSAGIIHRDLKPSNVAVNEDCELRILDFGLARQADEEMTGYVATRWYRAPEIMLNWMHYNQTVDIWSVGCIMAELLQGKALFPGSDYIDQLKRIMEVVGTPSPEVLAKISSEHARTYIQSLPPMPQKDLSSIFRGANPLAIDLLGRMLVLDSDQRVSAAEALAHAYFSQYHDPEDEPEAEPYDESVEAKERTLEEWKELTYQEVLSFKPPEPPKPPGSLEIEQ

[19] = biological target: MAPK3 (human) (UniProt P27361)
[20] = biological target: MAPKAPK2 (human) (UniProt P49137)
[21] = biological target: MELK (human) (UniProt Q14680)
[22] = biological target: MST1R (human) (UniProt Q04912)
Chain of MST1R (human) (Q04912 whole entry, looked up): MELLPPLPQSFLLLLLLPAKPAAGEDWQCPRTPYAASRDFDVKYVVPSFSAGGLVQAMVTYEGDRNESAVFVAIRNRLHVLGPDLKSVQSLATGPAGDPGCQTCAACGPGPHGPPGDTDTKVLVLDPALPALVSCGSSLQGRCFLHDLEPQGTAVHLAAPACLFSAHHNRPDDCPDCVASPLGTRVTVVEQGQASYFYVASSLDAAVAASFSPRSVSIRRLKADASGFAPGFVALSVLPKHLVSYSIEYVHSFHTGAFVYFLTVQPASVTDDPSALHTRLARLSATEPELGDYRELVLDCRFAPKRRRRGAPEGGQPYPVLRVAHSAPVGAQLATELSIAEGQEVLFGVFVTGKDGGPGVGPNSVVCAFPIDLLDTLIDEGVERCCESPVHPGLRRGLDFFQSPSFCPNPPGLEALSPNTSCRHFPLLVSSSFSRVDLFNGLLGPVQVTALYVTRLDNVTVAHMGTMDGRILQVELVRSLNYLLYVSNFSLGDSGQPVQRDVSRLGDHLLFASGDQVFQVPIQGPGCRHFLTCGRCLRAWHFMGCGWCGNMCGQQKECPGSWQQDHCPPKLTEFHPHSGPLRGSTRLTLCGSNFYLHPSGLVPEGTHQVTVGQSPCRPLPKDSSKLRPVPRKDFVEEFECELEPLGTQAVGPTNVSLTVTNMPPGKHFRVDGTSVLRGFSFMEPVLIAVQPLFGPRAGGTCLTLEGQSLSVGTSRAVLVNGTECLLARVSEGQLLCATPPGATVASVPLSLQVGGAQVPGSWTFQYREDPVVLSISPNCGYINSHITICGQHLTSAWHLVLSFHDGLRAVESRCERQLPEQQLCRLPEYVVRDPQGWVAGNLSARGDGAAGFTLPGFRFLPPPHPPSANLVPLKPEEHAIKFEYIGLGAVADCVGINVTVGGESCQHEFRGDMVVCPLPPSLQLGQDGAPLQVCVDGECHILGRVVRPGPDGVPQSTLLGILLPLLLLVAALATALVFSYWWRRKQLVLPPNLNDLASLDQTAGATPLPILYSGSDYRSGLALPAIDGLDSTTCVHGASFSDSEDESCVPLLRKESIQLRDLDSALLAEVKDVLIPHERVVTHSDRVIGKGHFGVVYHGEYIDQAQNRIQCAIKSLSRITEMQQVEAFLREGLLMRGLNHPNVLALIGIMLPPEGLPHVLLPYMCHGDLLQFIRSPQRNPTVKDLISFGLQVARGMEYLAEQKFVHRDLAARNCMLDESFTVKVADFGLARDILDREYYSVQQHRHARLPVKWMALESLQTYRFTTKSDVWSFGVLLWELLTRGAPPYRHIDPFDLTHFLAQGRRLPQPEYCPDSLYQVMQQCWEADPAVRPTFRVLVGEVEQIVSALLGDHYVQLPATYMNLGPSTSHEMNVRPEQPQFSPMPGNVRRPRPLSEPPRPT

[23] = biological target: NUAK1 (human) (UniProt O60285)
[24] = biological target: NUAK2 (human) (UniProt Q9H093)
[25] = biological target: PAK4 (human) (UniProt O96013)
Chain of PAK4 (human) (O96013 whole entry, looked up): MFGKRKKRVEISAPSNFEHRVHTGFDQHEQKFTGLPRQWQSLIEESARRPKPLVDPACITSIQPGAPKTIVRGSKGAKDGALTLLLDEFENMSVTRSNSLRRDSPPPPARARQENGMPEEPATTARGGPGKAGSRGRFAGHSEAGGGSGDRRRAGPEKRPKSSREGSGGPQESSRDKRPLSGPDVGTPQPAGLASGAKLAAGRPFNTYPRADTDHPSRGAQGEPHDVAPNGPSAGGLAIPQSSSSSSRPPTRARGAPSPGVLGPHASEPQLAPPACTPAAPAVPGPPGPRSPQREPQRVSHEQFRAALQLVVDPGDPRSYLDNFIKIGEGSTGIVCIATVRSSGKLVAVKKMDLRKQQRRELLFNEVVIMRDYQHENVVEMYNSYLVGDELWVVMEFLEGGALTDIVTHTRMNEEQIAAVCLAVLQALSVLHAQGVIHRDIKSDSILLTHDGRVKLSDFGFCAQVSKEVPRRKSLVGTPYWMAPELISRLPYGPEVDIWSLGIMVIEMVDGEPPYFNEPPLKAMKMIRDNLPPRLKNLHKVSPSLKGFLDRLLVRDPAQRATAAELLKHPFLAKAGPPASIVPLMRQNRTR

[26] = biological target: PAK6 (human) (UniProt Q9NQU5)
[27] = biological target: PIM1 (human) (UniProt P11309)
[28] = biological target: PRKD2 (human) (UniProt Q9BZL6)
[29] = biological target: PRKG1 (human) (UniProt Q13976)
[30] = biological target: RPS6KA3 KD1 KD2 (human) (UniProt P51812)
Chain of RPS6KA3 KD1 KD2 (human) (P51812 whole entry, looked up): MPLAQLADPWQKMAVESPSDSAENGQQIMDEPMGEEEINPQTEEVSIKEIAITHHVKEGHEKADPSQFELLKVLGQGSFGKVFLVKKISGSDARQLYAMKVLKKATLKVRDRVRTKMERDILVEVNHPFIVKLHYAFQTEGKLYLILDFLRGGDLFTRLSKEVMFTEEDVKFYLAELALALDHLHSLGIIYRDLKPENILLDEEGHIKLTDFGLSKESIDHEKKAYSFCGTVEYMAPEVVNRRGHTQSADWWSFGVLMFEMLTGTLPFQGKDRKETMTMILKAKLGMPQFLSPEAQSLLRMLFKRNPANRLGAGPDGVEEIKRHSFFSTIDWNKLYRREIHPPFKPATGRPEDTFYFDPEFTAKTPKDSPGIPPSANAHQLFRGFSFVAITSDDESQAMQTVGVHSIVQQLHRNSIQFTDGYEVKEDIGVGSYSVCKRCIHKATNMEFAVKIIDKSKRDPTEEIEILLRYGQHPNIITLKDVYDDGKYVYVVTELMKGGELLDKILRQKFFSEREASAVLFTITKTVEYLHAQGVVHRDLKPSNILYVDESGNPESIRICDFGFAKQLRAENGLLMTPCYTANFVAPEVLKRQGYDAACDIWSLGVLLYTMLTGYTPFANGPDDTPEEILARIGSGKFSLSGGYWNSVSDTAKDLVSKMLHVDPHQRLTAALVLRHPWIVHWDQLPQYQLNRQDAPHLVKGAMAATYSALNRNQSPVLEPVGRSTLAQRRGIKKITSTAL

[31] = biological target: SGK2 (human) (UniProt Q9HBY8)
[32] = biological target: SRPK2 (human) (UniProt P78362)
[33] = biological target: STK10 (human) (UniProt O94804)
[34] = biological target: STK25 (human) (UniProt O00506)
[35] = biological target: STK39 (human) (UniProt Q9UEW8)
[36] = biological target: TAOK3 (human) (UniProt Q9H2K8)
[37] = biological target: TEK (human) (UniProt Q02763)
Chain of TEK (human) (Q02763 whole entry, looked up): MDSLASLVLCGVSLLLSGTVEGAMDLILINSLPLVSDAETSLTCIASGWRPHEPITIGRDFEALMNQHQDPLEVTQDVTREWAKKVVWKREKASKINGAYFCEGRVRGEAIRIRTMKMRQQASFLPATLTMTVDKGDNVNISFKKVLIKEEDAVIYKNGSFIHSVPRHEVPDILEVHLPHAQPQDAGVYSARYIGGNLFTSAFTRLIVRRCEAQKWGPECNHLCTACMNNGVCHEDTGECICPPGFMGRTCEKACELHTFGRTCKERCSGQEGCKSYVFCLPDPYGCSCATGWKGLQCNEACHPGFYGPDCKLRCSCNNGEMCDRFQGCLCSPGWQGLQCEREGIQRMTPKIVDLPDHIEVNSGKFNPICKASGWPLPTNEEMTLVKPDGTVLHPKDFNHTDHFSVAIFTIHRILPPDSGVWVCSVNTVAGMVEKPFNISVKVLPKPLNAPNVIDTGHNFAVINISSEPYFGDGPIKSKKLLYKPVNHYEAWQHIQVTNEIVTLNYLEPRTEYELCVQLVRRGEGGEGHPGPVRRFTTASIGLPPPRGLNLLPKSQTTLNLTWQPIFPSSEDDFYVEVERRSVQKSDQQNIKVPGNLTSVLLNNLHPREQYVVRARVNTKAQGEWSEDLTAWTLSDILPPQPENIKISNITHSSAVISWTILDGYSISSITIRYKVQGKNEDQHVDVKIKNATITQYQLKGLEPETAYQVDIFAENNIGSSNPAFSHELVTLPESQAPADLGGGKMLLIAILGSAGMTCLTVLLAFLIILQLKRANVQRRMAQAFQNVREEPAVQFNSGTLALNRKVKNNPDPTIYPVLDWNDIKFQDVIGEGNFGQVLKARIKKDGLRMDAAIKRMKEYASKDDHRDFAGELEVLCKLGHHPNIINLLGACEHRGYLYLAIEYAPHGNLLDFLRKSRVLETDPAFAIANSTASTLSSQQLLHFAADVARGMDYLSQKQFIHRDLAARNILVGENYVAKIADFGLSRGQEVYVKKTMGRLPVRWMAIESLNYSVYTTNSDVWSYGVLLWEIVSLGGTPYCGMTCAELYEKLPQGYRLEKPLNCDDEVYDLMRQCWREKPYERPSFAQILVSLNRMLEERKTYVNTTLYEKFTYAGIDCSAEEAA

[38] = biological target: TSSK2 (human) (UniProt Q96PF2)
Chain of TSSK2 (human) (Q96PF2 whole entry, looked up): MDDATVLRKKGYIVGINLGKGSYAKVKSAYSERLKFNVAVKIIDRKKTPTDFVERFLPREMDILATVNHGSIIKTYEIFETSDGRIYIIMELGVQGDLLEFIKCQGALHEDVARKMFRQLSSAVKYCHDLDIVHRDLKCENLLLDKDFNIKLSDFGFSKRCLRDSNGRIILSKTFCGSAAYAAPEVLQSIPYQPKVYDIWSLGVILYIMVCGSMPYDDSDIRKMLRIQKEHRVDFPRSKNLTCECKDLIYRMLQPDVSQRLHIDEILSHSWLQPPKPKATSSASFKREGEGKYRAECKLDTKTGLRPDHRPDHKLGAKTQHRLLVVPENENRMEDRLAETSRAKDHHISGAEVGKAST

[39] = biological target: WNK3 (human) (UniProt Q9BYP7)

Chain of AKT2 (human) (P31751 whole entry, looked up): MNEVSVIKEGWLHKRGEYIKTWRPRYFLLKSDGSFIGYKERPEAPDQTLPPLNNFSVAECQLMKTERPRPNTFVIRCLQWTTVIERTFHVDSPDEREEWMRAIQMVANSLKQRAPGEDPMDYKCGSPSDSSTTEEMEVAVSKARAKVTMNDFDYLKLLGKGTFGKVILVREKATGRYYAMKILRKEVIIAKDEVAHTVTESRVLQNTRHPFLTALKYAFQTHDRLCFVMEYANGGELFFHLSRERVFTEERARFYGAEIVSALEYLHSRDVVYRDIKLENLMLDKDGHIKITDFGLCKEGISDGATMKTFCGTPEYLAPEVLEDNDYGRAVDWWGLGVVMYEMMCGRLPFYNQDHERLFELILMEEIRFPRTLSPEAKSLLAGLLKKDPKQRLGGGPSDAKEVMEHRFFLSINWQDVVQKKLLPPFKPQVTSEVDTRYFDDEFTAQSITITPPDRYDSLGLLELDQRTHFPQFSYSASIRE

CC(=O)c1ccc(N2CCOCC2)cc1O
residual activity [1]: 96.2% | residual activity [2]: 91.4% | residual activity [3]: 96.3% | residual activity [4]: 124% | residual activity [5]: 102% | residual activity [6]: 99.3% | residual activity [7]: 102% | residual activity [8]: 110% | residual activity [9]: 98.8% | residual activity [10]: 101% | residual activity [11]: 107% | residual activity [12]: 101% | residual activity [13]: 105% | residual activity [14]: 102% | residual activity [15]: 96.1% | residual activity [16]: 104% | residual activity [17]: 112% | residual activity [18]: 99.8% | residual activity [19]: 103% | residual activity [20]: 103% | residual activity [21]: 102% | residual activity [22]: 104% | residual activity [23]: 92.8% | residual activity [24]: 104% | residual activity [25]: 103% | residual activity [26]: 93.7% | residual activity [27]: 97.2% | residual activity [28]: 97.4% | residual activity [29]: 100% and 84.1% | residual activity [30]: 101% | residual activity [31]: 101% | residual activity [32]: 98.6% | residual activity [33]: 101% | residual activity [34]: 90.9% | residual activity [35]: 90.9% | residual activity [36]: 98.4% | residual activity [37]: 101% | residual activity [38]: 102%

CCN(CC)C(=O)c1ccc(Nc2nc(OCC3CCCCC3)c3nc[nH]c3n2)cc1
residual activity [1]: 92% | residual activity [2]: 30.1% | residual activity [3]: 80.8% | residual activity [4]: 96.8% | residual activity [5]: 90.4% | residual activity [6]: 52.9% | residual activity [7]: 40.6% | residual activity [8]: 104% | residual activity [9]: 90.9% | residual activity [10]: 86.7% | residual activity [11]: 91% | residual activity [12]: 96.5% | residual activity [13]: 77.9% | residual activity [14]: 40.7% | residual activity [15]: 2.21% | residual activity [16]: 15.2% | residual activity [17]: 3.8% | residual activity [18]: 85.5% | residual activity [19]: 101% | residual activity [20]: 99.2% | residual activity [21]: 76.3% | residual activity [22]: 103% | residual activity [23]: 3.67% | residual activity [24]: 23.1% | residual activity [25]: 51.5% | residual activity [26]: 95.5% | residual activity [27]: 95.6% | residual activity [28]: 67% | residual activity [29]: 89.8% and 96.1% | residual activity [30]: 17.6% | residual activity [31]: 94.4% | residual activity [32]: 87.8% | residual activity [33]: 57.3% | residual activity [34]: 85.2% | residual activity [35]: 91.5% | residual activity [36]: 74.2% | residual activity [37]: 95.4% | residual activity [38]: 87.4% | residual activity [39]: 80.6%

COc1ccc2c(c[n+](C)c3c4cc5c(cc4ccc23)OCO5)c1OC
residual activity [1]: 93.6% | residual activity [2]: 99.2% | residual activity [3]: 98% | residual activity [4]: 101% | residual activity [5]: 91.7% | residual activity [6]: 103% | residual activity [7]: 90.6% | residual activity [8]: 103% | residual activity [9]: 89.7% | residual activity [10]: 103% | residual activity [11]: 99.9% | residual activity [12]: 95.9% | residual activity [13]: 101% | residual activity [14]: 68.8% | residual activity [15]: 104% | residual activity [16]: 91.7% | residual activity [17]: 98.1% | residual activity [18]: 91.6% | residual activity [19]: 108% | residual activity [20]: 103% | residual activity [21]: 89.6% | residual activity [22]: 97.8% | residual activity [23]: 96.6% | residual activity [24]: 98.9% | residual activity [25]: 99.5% | residual activity [26]: 96.1% | residual activity [27]: 97% | residual activity [28]: 90.1% | residual activity [29]: 97.6% and 98.8% | residual activity [30]: 94.6% | residual activity [31]: 99.1% | residual activity [33]: 92.7% | residual activity [34]: 98.8% | residual activity [35]: 90.8% | residual activity [36]: 96.1% | residual activity [37]: 97.2% | residual activity [39]: 101%

Cc1ccc(S(=O)(=O)/C=C/C#N)cc1
residual activity [1]: 94.9% | residual activity [2]: 92.3% | residual activity [4]: 114% | residual activity [5]: 99.7% | residual activity [6]: 91.4% | residual activity [7]: 103% | residual activity [8]: 95.6% | residual activity [9]: 97.9% | residual activity [10]: 86.1% | residual activity [11]: 99.7% | residual activity [12]: 108% | residual activity [13]: 101% | residual activity [14]: 102% | residual activity [15]: 115% | residual activity [16]: 105% | residual activity [17]: 96.9% | residual activity [18]: 102% | residual activity [19]: 98.2% | residual activity [20]: 93.7% | residual activity [21]: 92% | residual activity [22]: 113% | residual activity [23]: 101% | residual activity [24]: 88.4% | residual activity [25]: 91.9% | residual activity [26]: 107% | residual activity [27]: 101% | residual activity [28]: 98.1% | residual activity [29]: 95.8% and 96.7% | residual activity [30]: 95.9% | residual activity [31]: 112% | residual activity [32]: 108% | residual activity [33]: 90.6% | residual activity [34]: 89.6% | residual activity [35]: 83.7% | residual activity [36]: 101% | residual activity [37]: 101% | residual activity [38]: 103% | residual activity [39]: 110%

O=c1cc(N2CCOCC2)oc2c1ccc1ccccc12
residual activity [1]: 98.9% | residual activity [2]: 97.6% | residual activity [3]: 98.1% | residual activity [4]: 112% | residual activity [5]: 102% | residual activity [6]: 102% | residual activity [7]: 101% | residual activity [8]: 115% | residual activity [9]: 78.6% | residual activity [10]: 94.4% | residual activity [11]: 101% | residual activity [12]: 101% | residual activity [13]: 101% | residual activity [14]: 105% | residual activity [15]: 96.9% | residual activity [16]: 102% | residual activity [17]: 111% | residual activity [18]: 97.9% | residual activity [19]: 106% | residual activity [20]: 98.3% | residual activity [21]: 103% | residual activity [22]: 103% | residual activity [23]: 90.1% | residual activity [24]: 120% | residual activity [25]: 108% | residual activity [26]: 92% | residual activity [27]: 54.8% | residual activity [28]: 101% | residual activity [29]: 84.5% and 94.6% | residual activity [30]: 103% | residual activity [31]: 102% | residual activity [32]: 100% | residual activity [33]: 96.9% | residual activity [34]: 94.8% | residual activity [35]: 95.7% | residual activity [36]: 98.7% | residual activity [37]: 94.4% | residual activity [38]: 100% | residual activity [39]: 97.5%
